Source: US5654296A, “Condensed heterocyclic compounds, their production and use” (priority 1994, dated 1997)
Where a name gives a salt, the structure may show the parent alone.

Legend:
[1] = system: 45Ca2+ uptake (veratrine-stimulated, rat cerebral cortex crude synaptosome fraction); assay: 45Ca2+ uptake inhibition experiment; type: biochemical; details: 30 μM veratrine, 37° C., 10 minutes, read-out: 45Ca2+ uptake inhibitory activity (IC50 μM)
Experimental: The rat cerebral cortex was homogenized in 10 volumes of ice-cooled 0.32M sucrose solution to prepare a crude synaptosome fraction (100×G, 10 min., 12000×G, 20 min.). […] To 900 μl of the homogenate was added a DMSO solution of the test drug (10 μl). The mixture was incubated at 37° C. for 10 minutes, followed by addition of 100 μl of a veratrine solution (containing 0.18 uci ^45 Ca^2+) at a final veratrine concentration of 30 μM. The mixture was incubated at 37° C. for 10 minutes, quenched with 4 ml of ice-cooled EGTA solution (120 mM sodium chloride, 5 mM potassium chloride, 5 mM EGTA, pH=7.5) and suction-filtered using a GF/B filter. The filter was washed twice with 4 ml each of a washing solution (132 mM sodium chloride, 5 mM potassium chloride, 1.3 mM magnesium chloride, 1.2 mM calcium, chloride, 20 mM Tris base, pH 7.5) and the radioactivity of […] was measured by the liquid scintillation method.
The ^45 Ca^2+ uptake inhibition rate was calculated by means of the following equation. [formula] A: The ^45 Ca^2+ uptake after 10 minutes' stimulation with 30 μM veratrine in the presence of the test drug
B: The ^45 Ca^2+ uptake in the absence of veratrine and in the presence of the test drug
C: The ^45 Ca^2+ uptake after 10 minutes' stimulation with 30 μM veratrine in the absence of the test drug
D: The ^45 Ca^2+ uptake in the absence of the test drug and in the absence of veratrine

serotonine (5-HT) uptake = assay: Activity to inhibit serotonine (5-HT) uptake; type: biochemical; details: rat whole brain; 3H-5-HT 10 nM; 37° C.; pH 7.4; read-out: 5-HT uptake inhibitory activity (IC50 μM)
Experimental: (a) Activity to inhibit serotonine (5-HT) uptake
The experiment was performed in accordance with the method of Hyttel et al. [Psychopharmacology 60, 13, 1978]. The whole brain of a rat was homogenized in 40 volumes of ice-cooled 0.32M sucrose solution containing 10 μM pargyline and, then, centrifuged (600×G) for 10 minutes. The supernatant was centrifuged (2500×G) for 55 minutes to provide a pellet. This pellet was suspended in Krebs-Ringer-phosphate buffer (pH 7.4; 122 mM NaCl, 4.82 mM KCl, 0.972 mM CaCl2, 1.21 mM MgSO4, 12.7 mM Na2 HPO4, 2.97 mM NaH2 PO4, 0.162 mM EDTA sodium, 10 mM glucose, 1.14 mM ascorbic acid) saturated with a mixed gas (95% O and 5% CO2). To 900 μl of this suspention was added a solution of the test drug (10 μl) in DMSO and the mixture was incubated at 37° C. for 5 minutes. Then, 100 μl of ^3 H-5-HT (final concentration 10 nM) was added and the mixture was further incubated at 37° C. for 5 minutes. This reaction mixture was filtered under suction using a GF/B filter and the filter was washed with 4 ml of the above-mentioned buffer. The radioactivity on the filter was measured by the liquid scintillation method.
The amount of the drug which caused a 50% decrease in 5-HT uptake is shown as 50% inhibitory activity (IC50) in Table 42.

[2] = target: T1, GnRH receptors (rat pituitary anterior lobe membrane fraction) (Rattus norvegicus, UniProt P30969); assay: 125I-leuprolerin GnRH receptor binding inhibition test, rat pituitary anterior lobe membrane fraction; details: 4° C., 90 minutes, read-out: Binding inhibitory activity (IC50 μM) Rat
T1 construct: the anterior lobe of the pituitary gland was isolated and washed with ice-cooled homogenate buffer; from tissue; host or cells: anterior lobe of the pituitary gland, male Wistar rats (8 weeks old), membrane fraction
T1 sequence (P30969 1-327): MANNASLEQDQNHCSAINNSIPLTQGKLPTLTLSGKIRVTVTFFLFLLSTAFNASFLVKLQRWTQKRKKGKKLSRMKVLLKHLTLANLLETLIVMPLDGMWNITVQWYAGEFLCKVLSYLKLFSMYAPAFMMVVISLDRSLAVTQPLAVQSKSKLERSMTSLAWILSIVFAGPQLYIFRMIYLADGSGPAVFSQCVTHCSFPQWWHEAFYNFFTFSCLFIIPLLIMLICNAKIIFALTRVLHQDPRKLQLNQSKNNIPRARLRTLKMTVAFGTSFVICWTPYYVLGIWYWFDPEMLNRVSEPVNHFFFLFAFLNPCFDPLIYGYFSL
Experimental: Ten (10) μl of 3×10^4 M aqueous leuprolerin solution and 10 μl of 0.01 mg/ml lactoperoxidase were taken in a tube and 10 μl of Na^125 I solution (37 MBq) was added. After stirring, 10 μl of 0.001% H2 O2 was added and the reaction was conducted at room temperature for 20 minutes. Then, 700 μl of 0.05% TFA solution was added to the tube to terminate the reaction and the reaction mixture was purified by reverse-phase HPLC. The HPLC conditions are shown below. ^125 I-leuprolerin was eluted after a retention time of 26-27 minutes. (B) Preparation of a Rat Pituitary Anterior Lobe Membrane Fraction Containing GnRH Receptors […] The pituitary tissue was floated in 2 ml of the homogenate buffer and homogenized using a Polytron homogenizer. The homogenate was centrifuged at 700×G for 15 minutes. The supernatant was taken in an ultracentrifuge tube and centrifuged at 100,000×G for 1 hour to provide a membrane fraction pellet. […] The membrane fraction recovered as a pellet was resuspended in 10 ml of assay buffer, divided into portions, preserved at -80° C. and thawed when needed. […] For the rat and human membrane fractions prepared in (B) and (D), each membrane fraction was diluted with assay buffer to a concentration of 200 μg/ml and distributed in 188 μl portions into tubes. As to the bovine membrane fraction prepared in (C), the membrane fraction was diluted with assay buffer to 750 μg/ml and distributed in 188 μl portions into tubes. […] Where the rat or bovine pituitary anterior lobe membrane fraction was used, the reaction was conducted at 4° C. for 90 minutes. Where the membrane fraction of the CHO with human GnRH receptors expressed was used, the reaction was carried out at 25° C. for 60 minutes. […] After filtration, the radioactivity of ^125 I-leuprolerin remaining on the filter was measured with a γ-counter. The expression (TB-SB)/(TB-NSB)×100 (where SB=radioactivity with the compound added, TB=maximum bound radioactivity, NSB=nonspecifically bound radioactivity) was calculated to find the binding inhibition rate of each test compound.

[3] = target: T2, GnRH receptors (bovine pituitary anterior lobe membrane fraction) (Bos taurus, UniProt P32236); assay: 125I-leuprolerin GnRH receptor binding inhibition test, bovine pituitary anterior lobe membrane fraction; details: 4° C., 90 minutes, read-out: Binding inhibitory activity (IC50 μM) Bovine
T2 construct: A bovine pituitary anterior lobe membrane fraction containing GnRH receptors was prepared; from tissue; host or cells: bovine pituitary anterior lobe, membrane fraction
T2 sequence (P32236 1-328): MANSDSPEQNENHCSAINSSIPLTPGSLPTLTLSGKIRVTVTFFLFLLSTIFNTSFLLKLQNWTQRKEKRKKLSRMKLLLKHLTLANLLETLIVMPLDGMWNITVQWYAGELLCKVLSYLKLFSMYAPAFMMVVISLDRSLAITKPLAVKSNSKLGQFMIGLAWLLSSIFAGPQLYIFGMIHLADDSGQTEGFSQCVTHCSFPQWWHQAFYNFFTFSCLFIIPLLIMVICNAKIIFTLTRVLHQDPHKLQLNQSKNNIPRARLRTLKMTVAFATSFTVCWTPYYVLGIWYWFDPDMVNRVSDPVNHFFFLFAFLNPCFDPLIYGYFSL
Experimental: Ten (10) μl of 3×10^4 M aqueous leuprolerin solution and 10 μl of 0.01 mg/ml lactoperoxidase were taken in a tube and 10 μl of Na^125 I solution (37 MBq) was added. After stirring, 10 μl of 0.001% H2 O2 was added and the reaction was conducted at room temperature for 20 minutes. Then, 700 μl of 0.05% TFA solution was added to the tube to terminate the reaction and the reaction mixture was purified by reverse-phase HPLC. The HPLC conditions are shown below. ^125 I-leuprolerin was eluted after a retention time of 26-27 minutes. (C) Preparation of a Bovine Pituitary Anterior Lobe Membrane Fraction Containing GnRH Receptors A bovine pituitary anterior lobe membrane fraction containing GnRH receptors was prepared by the same procedure as described under (B). However, a 10,000×G centrifugation supernatant was recentrifuged at 100,000×G for 1 hour to provide the membrane fraction pellet. […] For the rat and human membrane fractions prepared in (B) and (D), each membrane fraction was diluted with assay buffer to a concentration of 200 μg/ml and distributed in 188 μl portions into tubes. As to the bovine membrane fraction prepared in (C), the membrane fraction was diluted with assay buffer to 750 μg/ml and distributed in 188 μl portions into tubes. […] Where the rat or bovine pituitary anterior lobe membrane fraction was used, the reaction was conducted at 4° C. for 90 minutes. Where the membrane fraction of the CHO with human GnRH receptors expressed was used, the reaction was carried out at 25° C. for 60 minutes. […] After filtration, the radioactivity of ^125 I-leuprolerin remaining on the filter was measured with a γ-counter. The expression (TB-SB)/(TB-NSB)×100 (where SB=radioactivity with the compound added, TB=maximum bound radioactivity, NSB=nonspecifically bound radioactivity) was calculated to find the binding inhibition rate of each test compound.

Structure (SMILES)	IC50 [1] [µM]	IC50 (serotonine (5-HT) uptake) [µM]	IC50 [2] [µM]	IC50 [3] [µM]
Clc1ccccc1CNCCCC1(c2ccccc2)COCc2ccccc21 (centres unmarked) [Example I-20, 4-[3-(o-Chlorobenzylamino)propyl]-4-phenylisochroman hydrochloride]	0.94			
CN(CCCC1(c2ccccc2)CNCc2ccccc21)Cc1ccccc1 (centres unmarked) [III-7, 4-[3-(N-Benzyl-N-methyl)aminopropyl]-1,2,3,4-tetrahydro-4-phenylisoquinoline dihydrochloride]	1.77	0.2		
Cc1cccc(CNCCCC2(c3ccccc3)COCc3ccccc32)c1 (centres unmarked) [Example I-46, 4-[3-(m-Methylbenzylamino)propyl]-4-phenylisochroman hydrochloride]			0.5	14
CN1Cc2ccccc2C(CCCN2CCN(c3ccccc3)CC2)(c2ccccc2)C1 (centres unmarked) [IV-7, 1,2,3,4-Tetrahydro-2-methyl-4-phenyl-4-[3-(4-phenylpiperazin-1-yl)propyl]isoquinoline trihydrochloride]	1.71	0.18		
c1ccc(N2CCN(CCC3(c4ccccc4)COCc4ccccc43)CC2)cc1 (centres unmarked) [Example I-6, 4-[2-(4-Phenylpiperazin-1-yl)ethyl]-4-phenylisochroman dihydrochloride]	0.32	1		
C1=NCC(CCCN2CCN(c3ccccc3)CC2)(c2ccccc2)c2ccccc21 (centres unmarked) [II-8, 4-Phenyl-4-[3-(4-phenylpiperazin-1-yl)propyl]isoquinoline]	1.84	0.41		
c1ccc(CNCCCC2(c3ccccc3)COCc3ccccc32)cc1 (centres unmarked) [Example I-18, 4-[3-(Benzylamino)propyl]-4-phenylisochroman hydrochloride]	1.32	0.8		
CN1Cc2ccccc2C(CCCN2CCC(c3ccccc3)CC2)(c2ccc(Cl)cc2)C1 (centres unmarked) [IV-13, 4-(p-Chlorophenyl)-2-methyl-4-[3-(4-phenylpiperidino)propyl]-1,2,3,4-tetrahydroisoquinoline trihydrochloride]	0.32	0.13		
Fc1ccc(N2CCN(CCCC3(c4ccccc4)CNCc4ccccc43)CC2)cc1 (centres unmarked) [III-9, 4-{3-[4-(p-fluorophenyl)piperazin-1-yl]propyl}-1,2,3,4-tetrahydro-4-phenylisoquinoline dihydrochloride]	1.44	0.17		
c1ccc(C2(CCCNCc3ccccn3)COCc3ccccc32)cc1 (centres unmarked) [Example I-23, 4-[3-(2-Picolylamino)propyl]-4-phenylisochroman dihydrochloride]	0.5			
c1ccc(N2CCN(CCCC3(c4ccccc4)CNCc4ccccc43)CC2)cc1 (centres unmarked) [III-8, 1,2,3,4-Tetrahydro-4-phenyl-4-[3-(4-phenylpiperazin-1-yl)propyl]isoquinoline trihydrochloride]	1.63	0.16		
Fc1ccccc1CNCCCC1(c2ccccc2)COCc2ccccc21 (centres unmarked) [Example I-19, 4-[3-(o-Fluorobenzylamino)propyl]-4-phenylisochroman hydrochloride]	1.05			
Clc1ccc(C2(CCCN3CCN(c4ccccc4)CC3)CN=Cc3ccccc32)cc1 (centres unmarked) [II-13, 4-(p-Chlorophenyl)-3,4-dihydro-4-[3-(4-phenylpiperazino)propyl]isoquinolinetrihydrochloride]	1.29	0.14		
c1ccc(C2(CCCN3CCCCCC3)COCc3ccccc32)cc1 (centres unmarked) [Example I-15, 4-[3-(1-Hexamethyleneimino)propyl]-4-phenylisochroman hydrochloride]	1.25			
CN(CCCC1(c2ccccc2)CN=Cc2ccccc21)Cc1ccccc1 (centres unmarked) [II-7, 4-[3-(N-Benzyl-N-methyl)aminopropyl]-3,4-dihydro-4-phenylisoquinoline dihydrochloride]	0.46	0.88		
